{"source": "paper PMC2074348", "about": "“Preclinical in vivo efficacy of two 9-dihydrotaxane analogues against human and murine tumours” (British Journal of Cancer, 1996)", "key": {"[1]": {"settings": "mouse, in vivo, ip, 20 mg/kg"}, "[2]": {"test_system": "murine B16F10 melanoma ascites tumour", "test": "In vivo efficacy vs i.p. B16F10 melanoma ascites tumour", "settings": "for %ILS (group mean increase in lifespan) / MST (mean survival time ± s.d.) / Per cent toxicity (mice with premature death) / Per cent cures (mice alive 60 days after inoculation): q.d., i.p., days 1-5 after inoculation, BDF1 mice"}, "[3]": {"test_system": "murine M109 solid tumour", "test": "In vivo efficacy vs subcutaneous M109 solid tumour"}, "[4]": {"test_system": "ovarian tumours", "set-up": "method as in McGuire et al., 1989", "settings": "ovarian tumours that had failed cisplatinum therapy; ref McGuire et al., 1989; cited from earlier work"}, "[5]": {"test_system": "BDF mice bearing B16F10 ascites tumours", "settings": "maximum dose yielding <20% lethality following five i.p. doses once daily"}, "[6]": {"test_system": "A549", "test": "In vitro tumour cell cytotoxicity, colorimetric MTT assay, 72 h", "type": "cell-based, human", "settings": "Homo sapiens, 72 h exposure, read-out: IC50"}, "[7]": {"test_system": "human MX-1 xenograft solid tumour", "settings": "for Delay (1.0 g) (footnote: delay to reach mean tumour mass = 0.5 g, compared with untreated) / Per cent cures (mice with no palpable tumours, day 60) / Per cent toxicity / TWI (per cent tumour weight inhibition when untreated control mean = 0.5 g): q.d., i.p., days 1-5 after inoculation, s.c. xenograft"}, "[8]": {"test_system": "P388", "test": "In vitro tumour cell cytotoxicity, colorimetric MTT assay, 72 h", "type": "cell-based, murine", "settings": "Mus musculus, 72 h exposure, read-out: IC50"}, "[9]": {"test_system": "HT-29", "test": "In vitro tumour cell cytotoxicity, colorimetric MTT assay, 72 h", "type": "cell-based, human", "settings": "Homo sapiens, 72 h exposure, read-out: IC50"}, "[10]": {"test_system": "breast tumour", "set-up": "method as in Holmes et al., 1991", "settings": "breast tumour patients who had failed one previous course of chemotherapy; ref Holmes et al., 1991; cited from earlier work"}, "[11]": {"test_system": "B16F10", "test": "In vitro tumour cell cytotoxicity, colorimetric MTT assay, 72 h", "type": "cell-based, murine", "settings": "Mus musculus, B16-F10, 72 h exposure, read-out: IC50"}, "[12]": {"test": "in vivo", "settings": "male, CD-1, mouse, ip, 20 mg/kg"}, "[13]": {"settings": "at non-toxic doses, i.p. once daily for 5 consecutive days"}, "[14]": {"settings": "dose 6.25 mg kg-1 per day, q.d., i.p., days 1, 5, 9 after inoculation, s.c. tumour, BDF1 mice"}, "[15]": {"settings": "dose 12.5 mg kg-1 per day, q.d., i.p., days 1, 5, 9 after inoculation, s.c. tumour, BDF1 mice"}, "[16]": {"settings": "dose 25 mg kg-1 per day, q.d., i.p., days 1, 5, 9 after inoculation, s.c. tumour, BDF1 mice"}, "[17]": {"settings": "dose 6.25 mg kg-1 per day, nude mice"}, "[18]": {"settings": "dose 12.5 mg kg-1 per day, nude mice"}, "[19]": {"settings": "dose 25 mg kg-1 per day, nude mice"}, "[20]": {"settings": "once daily on days 1-5 after inoculation"}}, "note": "Where two headings read alike, the source gives them in different places.", "data": [{"smiles": "CC(=O)O[C@H]1C(=O)[C@@]2(C)[C@H]([C@H](OC(=O)c3ccccc3)[C@]3(O)C[C@H](OC(=O)[C@H](O)[C@@H](NC(=O)c4ccccc4)c4ccccc4)C(C)=C1C3(C)C)[C@]1(OC(C)=O)CO[C@@H]1C[C@@H]2O", "note": "[Paclitaxel, reference compound]", "values": [{"measurement": "AUC", "setting": "[1]", "value": 42.53, "unit": "ig per h ml-1"}, {"measurement": "AUC value (rounded)", "setting": "[1]", "value": 43, "unit": "jg h-1 ml-1"}, {"measurement": "Cmax", "setting": "[1]", "value": 14.13, "unit": "ig ml-1"}, {"measurement": "Cmax (rounded)", "setting": "[1]", "value": 14, "unit": "jg ml-1"}, {"measurement": "Cure rate at optimal non-toxic dose", "setting": "[2]; [13]", "value": 0, "unit": "%"}, {"measurement": "Optimal increase in life span (ILS)", "setting": "[2]; [13]", "value": 96, "unit": "%"}, {"measurement": "%ILS (group mean increase in lifespan)", "setting": "[2]; dose 6.25 mg kg-1 per day", "value": 34, "unit": "%"}, {"measurement": "MST (mean survival time ± s.d.)", "setting": "[2]; dose 6.25 mg kg-1 per day", "value": "26.4 ± 3.4", "unit": "days"}, {"measurement": "Per cent toxicity (mice with premature death)", "setting": "[2]; dose 6.25 mg kg-1 per day", "value": 0, "unit": "%"}, {"measurement": "%ILS (group mean increase in lifespan)", "setting": "[2]; dose 12.5 mg kg-1 per day", "value": 34, "unit": "%"}, {"measurement": "Per cent cures (mice alive 60 days after inoculation)", "setting": "[2]; dose 12.5 mg kg-1 per day", "value": 0, "unit": "%"}, {"measurement": "Per cent toxicity (mice with premature death)", "setting": "[2]; dose 12.5 mg kg-1 per day", "value": 0, "unit": "%"}, {"measurement": "%ILS (group mean increase in lifespan)", "setting": "[2]; dose 25 mg kg-1 per day", "value": 96, "unit": "%"}, {"measurement": "MST (mean survival time ± s.d.)", "setting": "[2]; dose 25 mg kg-1 per day", "value": "38.6 ± 4.8", "unit": "days"}, {"measurement": "Per cent cures (mice alive 60 days after inoculation)", "setting": "[2]; dose 25 mg kg-1 per day", "value": 0, "unit": "%"}, {"measurement": "Per cent toxicity (mice with premature death)", "setting": "[2]; dose 25 mg kg-1 per day", "value": 0, "unit": "%"}, {"measurement": "Optimal dose", "setting": "[2]; i.p. once daily for 5 consecutive days", "value": 25, "unit": "mg/kg/day"}, {"measurement": "Tumour weight inhibition (TWI) when untreated mice had a mean tumour mass of 1 g", "setting": "[3]", "value": 47, "unit": "%"}, {"measurement": "Delay (1.0 g): delay to reach mean tumour mass = 1.0 g, compared with untreated", "setting": "[3]; [14]", "value": 0.4, "unit": "days"}, {"measurement": "Per cent cures (mice with no palpable tumours, day 60)", "setting": "[3]; [14]", "value": 0, "unit": "%"}, {"measurement": "Per cent toxicity", "setting": "[3]; [14]", "value": 0, "unit": "%"}, {"measurement": "TWI (per cent tumour weight inhibition when untreated control mean = 1.0 g)", "setting": "[3]; [14]", "value": 22, "unit": "%"}, {"measurement": "Days (1.0 g): days to reach mean tumour mass = 1.0 g ± s.d.", "setting": "[3]; [15]", "value": "12.6+ 1.0 days"}, {"measurement": "Delay (1.0 g): delay to reach mean tumour mass = 1.0 g, compared with untreated", "setting": "[3]; [15]", "value": 0.6, "unit": "days"}, {"measurement": "Per cent cures (mice with no palpable tumours, day 60)", "setting": "[3]; [15]", "value": 0, "unit": "%"}, {"measurement": "Per cent toxicity", "setting": "[3]; [15]", "value": 0, "unit": "%"}, {"measurement": "TWI (per cent tumour weight inhibition when untreated control mean = 1.0 g)", "setting": "[3]; [15]", "value": 40, "unit": "%"}, {"measurement": "Delay (1.0 g): delay to reach mean tumour mass = 1.0 g, compared with untreated", "setting": "[3]; [16]", "value": 0.9, "unit": "days"}, {"measurement": "Per cent cures (mice with no palpable tumours, day 60)", "setting": "[3]; [16]", "value": 0, "unit": "%"}, {"measurement": "Per cent toxicity", "setting": "[3]; [16]", "value": 30, "unit": "%"}, {"measurement": "TWI (per cent tumour weight inhibition when untreated control mean = 1.0 g)", "setting": "[3]; [16]", "value": 47, "unit": "%"}, {"measurement": "Delay in solid tumour growth to 1 g", "setting": "[3]; paclitaxel at a non-toxic dose", "value": 0.6, "unit": "days"}, {"measurement": "Response rate", "setting": "[4]", "value": 30, "unit": "%"}, {"measurement": "MTD (q.d. days 1-5)", "setting": "[5]", "value": 25, "unit": "mg kg-1 per day"}, {"measurement": "IC50", "setting": "[6]", "value": 3.4, "unit": "ng/mL"}, {"measurement": "Optimal dose", "setting": "[7]; administered on days 1-5 after inoculation, nude mice", "value": 12.5, "unit": "mg kg-1 per dose"}, {"measurement": "Tumour weight inhibition (TWI) when untreated mice had a mean tumour mass of 0.5 g", "setting": "[7]; analogues optimally, paclitaxel at non-toxic doses", "value": 80, "unit": "%"}, {"measurement": "Delay (1.0 g) (footnote: delay to reach mean tumour mass = 0.5 g, compared with untreated)", "setting": "[7]; [17]", "value": 1.4, "unit": "days"}, {"measurement": "Per cent cures (mice with no palpable tumours, day 60)", "setting": "[7]; [17]", "value": 0, "unit": "%"}, {"measurement": "Per cent toxicity", "setting": "[7]; [17]", "value": 0, "unit": "%"}, {"measurement": "TWI (per cent tumour weight inhibition when untreated control mean = 0.5 g)", "setting": "[7]; [17]", "value": 42, "unit": "%"}, {"measurement": "Delay (1.0 g) (footnote: delay to reach mean tumour mass = 0.5 g, compared with untreated)", "setting": "[7]; [18]", "value": 13.4, "unit": "days"}, {"measurement": "Per cent cures (mice with no palpable tumours, day 60)", "setting": "[7]; [18]", "value": 10, "unit": "%"}, {"measurement": "Per cent toxicity", "setting": "[7]; [18]", "value": 0, "unit": "%"}, {"measurement": "TWI (per cent tumour weight inhibition when untreated control mean = 0.5 g)", "setting": "[7]; [18]", "value": 80, "unit": "%"}, {"measurement": "Delay (1.0 g) (footnote: delay to reach mean tumour mass = 0.5 g, compared with untreated)", "setting": "[7]; [19]", "value": 19.1, "unit": "days"}, {"measurement": "Per cent cures (mice with no palpable tumours, day 60)", "setting": "[7]; [19]", "value": 30, "unit": "%"}, {"measurement": "Per cent toxicity", "setting": "[7]; [19]", "value": 40, "unit": "%"}, {"measurement": "TWI (per cent tumour weight inhibition when untreated control mean = 0.5 g)", "setting": "[7]; [19]", "value": 100, "unit": "%"}, {"measurement": "Cure rate", "setting": "[7]; [20]", "value": 10, "unit": "%"}, {"measurement": "Delay in tumour growth compared with untreated controls", "setting": "[7]; [20]", "value": 13.4, "unit": "days"}, {"measurement": "IC50", "setting": "[8]", "value": 9.9, "unit": "ng/mL"}, {"measurement": "IC50", "setting": "[9]", "value": 2.7, "unit": "ng/mL"}, {"measurement": "Response rate", "setting": "[10]", "value": 48, "unit": "%"}, {"measurement": "IC50", "setting": "[11]", "value": 4.9, "unit": "ng/mL"}, {"measurement": "Tmax", "setting": "[12]", "value": 1.5, "unit": "h"}, {"measurement": "half-life", "setting": "[12]", "value": 2.9, "unit": "h"}]}]}
